Experimental data: PMC9154192 (PLoS Biology, 2022)
Values joined by “and” are separate entries in the source; they are usually repeats but may differ in a detail not shown here. Equal entries are not always repeated. Where two headings read alike, the source gives them in different places.

Tests used:
in vitro = type: cell-based, murine; details: mouse
Description: A549 human pulmonary epithelial cells (KCLB 10185), human embryonic kidney (HEK) 293 cells (KCLB 21573), human THP-1 leukemia cells (KCLB 40202), human neuroblastoma SH-SY5Y cells (KCLB 22266), Murine Raw 264.7 macrophages (KCLB 40071), and L929 murine fibroblasts (KCLB 10001) were purchased from the KCLB (Seoul, Korea). Cytotoxicity testing was performed using the MTT assay and the WST-1 cell viability assay as previously described.

XDR M. tuberculosis [1] = experiment: Luminescence-based microbial cell viability assay; parameters: species or system Mycobacterium tuberculosis
[2] = system: XDR M. tuberculosis (KMRC 00203–00197); type: cell-based, Mycobacterium tuberculosis; details: for log reduction (CFU): 7 days
M. tuberculosis H37Rv = type: in vivo, BALB/c mice; details: for Efficacy in BALB/C mouse model of pulmonary tuberculosis, Average: Fig 4A; for reduction of bacterial load in lungs compared to drug-free group / granulomatous lesions in lung sections (HE staining): mouse, in vivo; for granulomatous lesions in lung sections (HE staining): po
[3] = Acute oral toxicity test in mice; type: in vivo, BALB/c mice; details: single oral, 5 mice; for Deaths of mice, Days after dosing 0: day 0; for Deaths of mice, Days after dosing 1: day 1; for Deaths of mice, Days after dosing 2: day 2; for Deaths of mice, Days after dosing 3: day 3; for Deaths of mice, Days after dosing 4: day 4; for Deaths of mice, Days after dosing 5: day 5; for Deaths of mice, Days after dosing 6: day 6; for Deaths of mice, Days after dosing 7: day 7; for Deaths of mice, Days after dosing 8: day 8; for Deaths of mice, Days after dosing 9: day 9; for Deaths of mice, Days after dosing 10: day 10; for Deaths of mice, Days after dosing 11: day 11; for Deaths of mice, Days after dosing 12: day 12; for Deaths of mice, Days after dosing 13: day 13; for Deaths of mice, Days after dosing 14: day 14
Description: This experiment was conducted in a toxicity test at Soonchunhyang University's Animal Biological Safety Level 2 (ABSL-2) facility. The study protocol was reviewed and approved by Soonchunhyang University Animal Ethics Committee. Six-week-old female BALB/c were purchased from Koatech (Pyeongtaek, Korea) and five mice per group were tested. Drugs were orally administered once using a zonde and observed for two weeks. Corn oil (Sigma, USA) was used as the vehicle.

[4] = type: in vivo, Crl:CD SD rats; details: single oral dose up to 2,000 mg/kg, SD rats, 2 weeks
Description: Toxicity studies were conducted at Biotoxtech (Korea) under review and approval from IACUC (170842, 180144, 170889) of Biotoxtech. All animals used in the toxicity test were purchased from OrientBio (Korea).
For acute toxicity study with a single oral administration, 6-week-old Crl:CD SD rats were used. For PP1S, a total of 8 groups (n = 4 rats/group) were used (0, 500, 1,000, and 2,000 mg/kg for females and males, respectively). For PP2S, a total of 4 groups (n = 5 rats/group) were used (0 and 2,000 mg/kg for females and males, respectively). […] Corn oil (Sigma, USA) was used as the vehicle. Control animals were treated only with the same volume of the vehicle.

XDR M. tuberculosis [5] = type: cell-based, Mycobacterium tuberculosis

NNC(=O)c1ccncc1 [INH, isoniazid, reference compound]
CC50 (in vitro; L929): > 500 mg/L | CC50 (in vitro; Raw264.7): > 500 mg/L | RLU/50ul (replicates1-3), single values (XDR M. tuberculosis [1]): 190 RLU/50ul and 260 RLU/50ul (2×) and 250 RLU/50ul and 280 RLU/50ul and 160 RLU/50ul (2×) and 150 RLU/50ul and 170 RLU/50ul and 540 RLU/50ul (2×) and 630 RLU/50ul (2×) and 530 RLU/50ul and 620 RLU/50ul and 670 RLU/50ul (2×) and 580 RLU/50ul and 690 RLU/50ul and 830 RLU/50ul (2×) and 790 RLU/50ul and 800 RLU/50ul and 880 RLU/50ul and 870 RLU/50ul and 750 RLU/50ul (2×) | antitubercular effect (XDR M. tuberculosis [1]): did not show a significant antitubercular effect | CFU (replicates1-3), single values [2]: 6900 CFU and 40600 CFU and 43800 CFU and 52100 CFU and 37500 CFU and 35600 CFU and 31700 CFU and 15100 CFU and 27000 CFU and 106000 CFU and 157000 CFU and 148000 CFU and 98000 CFU and 61800 CFU and 75500 CFU and 71000 CFU and 87000 CFU and 97000 CFU | log reduction (CFU) ([2]; at 12.5 μg/ml): 1.0 | Efficacy in BALB/C mouse model of pulmonary tuberculosis, Average (M. tuberculosis H37Rv; group dose 30, 6 mice): 4583 | reduction of bacterial load in lungs compared to drug-free group (M. tuberculosis H37Rv): similar | granulomatous lesions in lung sections (HE staining) (M. tuberculosis H37Rv): limited number of small granulomatous lesions

COC(=O)[C@@H]1CCC(=O)N1Cc1cc2ccc(OC)cc2c2cc(OC)c(OC)cc12 [PP1S, (S)-N-[(2,3,6-Trimethoxy-10-phenanthryl)methyl]-pyroglutamic acid methyl ester]
CC50 (in vitro; L929): > 500 mg/L | CC50 (in vitro; L929, MTT assay (Table S1)): > 100 mg/L | CC50 (in vitro; RAW, MTT assay (Table S1)): > 100 mg/L | CC50 (in vitro; Raw264.7): > 500 mg/L | Deaths of mice, Days after dosing 0 ([3]; Dose 500 mg/kg): 0 | Deaths of mice, Days after dosing 1 ([3]; Dose 500 mg/kg): 0 | Deaths of mice, Days after dosing 2 ([3]; Dose 500 mg/kg): 0 | Deaths of mice, Days after dosing 3 ([3]; Dose 500 mg/kg): 0 | Deaths of mice, Days after dosing 4 ([3]; Dose 500 mg/kg): 0 | Deaths of mice, Days after dosing 5 ([3]; Dose 500 mg/kg): 0 | Deaths of mice, Days after dosing 6 ([3]; Dose 500 mg/kg): 0 | Deaths of mice, Days after dosing 7 ([3]; Dose 500 mg/kg): 0 | Deaths of mice, Days after dosing 8 ([3]; Dose 500 mg/kg): 0 | Deaths of mice, Days after dosing 9 ([3]; Dose 500 mg/kg): 0 | Deaths of mice, Days after dosing 10 ([3]; Dose 500 mg/kg): 0 | Deaths of mice, Days after dosing 11 ([3]; Dose 500 mg/kg): 0 | Deaths of mice, Days after dosing 12 ([3]; Dose 500 mg/kg): 0 | Deaths of mice, Days after dosing 13 ([3]; Dose 500 mg/kg): 0 | Deaths of mice, Days after dosing 14 ([3]; Dose 500 mg/kg): 0 | Deaths of mice, Days after dosing 0 ([3]; Dose 1000 mg/kg): 0 | Deaths of mice, Days after dosing 1 ([3]; Dose 1000 mg/kg): 0 | Deaths of mice, Days after dosing 2 ([3]; Dose 1000 mg/kg): 0 | Deaths of mice, Days after dosing 3 ([3]; Dose 1000 mg/kg): 0 | Deaths of mice, Days after dosing 4 ([3]; Dose 1000 mg/kg): 0 | Deaths of mice, Days after dosing 5 ([3]; Dose 1000 mg/kg): 0 | Deaths of mice, Days after dosing 6 ([3]; Dose 1000 mg/kg): 0 | Deaths of mice, Days after dosing 7 ([3]; Dose 1000 mg/kg): 0 | Deaths of mice, Days after dosing 8 ([3]; Dose 1000 mg/kg): 0 | Deaths of mice, Days after dosing 9 ([3]; Dose 1000 mg/kg): 0 | Deaths of mice, Days after dosing 10 ([3]; Dose 1000 mg/kg): 0 | Deaths of mice, Days after dosing 11 ([3]; Dose 1000 mg/kg): 0 | Deaths of mice, Days after dosing 12 ([3]; Dose 1000 mg/kg): 0 | Deaths of mice, Days after dosing 13 ([3]; Dose 1000 mg/kg): 0 | Deaths of mice, Days after dosing 14 ([3]; Dose 1000 mg/kg): 0 | Deaths of mice, Days after dosing 0 ([3]; Dose 2000 mg/kg): 0 | Deaths of mice, Days after dosing 1 ([3]; Dose 2000 mg/kg): 0 | Deaths of mice, Days after dosing 2 ([3]; Dose 2000 mg/kg): 0 | Deaths of mice, Days after dosing 3 ([3]; Dose 2000 mg/kg): 0 | Deaths of mice, Days after dosing 4 ([3]; Dose 2000 mg/kg): 0 | Deaths of mice, Days after dosing 5 ([3]; Dose 2000 mg/kg): 0 | Deaths of mice, Days after dosing 6 ([3]; Dose 2000 mg/kg): 0 | Deaths of mice, Days after dosing 7 ([3]; Dose 2000 mg/kg): 0 | Deaths of mice, Days after dosing 8 ([3]; Dose 2000 mg/kg): 0 | Deaths of mice, Days after dosing 9 ([3]; Dose 2000 mg/kg): 0 | Deaths of mice, Days after dosing 10 ([3]; Dose 2000 mg/kg): 0 | Deaths of mice, Days after dosing 11 ([3]; Dose 2000 mg/kg): 0 | Deaths of mice, Days after dosing 12 ([3]; Dose 2000 mg/kg): 0 | Deaths of mice, Days after dosing 13 ([3]; Dose 2000 mg/kg): 0 | Deaths of mice, Days after dosing 14 ([3]; Dose 2000 mg/kg): 0 | change in body weight compared to control group [4]: no significant change | clinical symptoms and death [4]: not observed | growth of M. tuberculosis in macrophages (CFU) (XDR M. tuberculosis [5]): significantly inhibited the growth | RLU/50ul (replicates1-3), single values (XDR M. tuberculosis [1]): 370 RLU/50ul (2×) and 430 RLU/50ul and 270 RLU/50ul and 260 RLU/50ul and 320 RLU/50ul and 360 RLU/50ul and 340 RLU/50ul and 390 RLU/50ul and 420 RLU/50ul and 450 RLU/50ul and 590 RLU/50ul and 610 RLU/50ul and 670 RLU/50ul and 570 RLU/50ul and 550 RLU/50ul (2×) and 460 RLU/50ul and 440 RLU/50ul and 630 RLU/50ul and 790 RLU/50ul and 540 RLU/50ul and 580 RLU/50ul and 840 RLU/50ul and 860 RLU/50ul and 750 RLU/50ul and 640 RLU/50ul | RLU/ml (×100) (XDR M. tuberculosis [1]): 69.1 RLU/ml (×100) and 105.8 RLU/ml (×100) and 137.3 RLU/ml (×100) | concentration with significant antitubercular effect (XDR M. tuberculosis [1]): 1.56 µg/mL and 0.78 µg/mL | CFU (replicates1-3), single values [2]: 9800 CFU and 11000 CFU and 9100 CFU and 4200 CFU and 13900 CFU and 20700 CFU and 20100 CFU and 12600 CFU and 16500 CFU and 28000 CFU and 112000 CFU and 92700 CFU and 90100 CFU and 36800 CFU and 38700 CFU and 24400 CFU and 24700 CFU and 22500 CFU | log reduction (CFU) ([2]; at 0.8 μg/ml): 0.8 | log reduction (CFU) ([2]; at 1.6 μg/ml): 1.3 | Efficacy in BALB/C mouse model of pulmonary tuberculosis, Average (M. tuberculosis H37Rv; group dose 15, 6 mice): 4150 | Efficacy in BALB/C mouse model of pulmonary tuberculosis, Average (M. tuberculosis H37Rv; group dose 30, 6 mice): 2508 | reduction of bacterial load in lungs compared to drug-free group (M. tuberculosis H37Rv): more than 90% | granulomatous lesions in lung sections (HE staining) (M. tuberculosis H37Rv): limited number of small granulomatous lesions

COC(=O)[C@@H]1CCC(=O)N1Cc1cc2ccc(OCc3ccccc3)cc2c2cc(OC)c(OC)cc12 [PP3S, Methyl (S)-1-{[3-(Benzyloxy)-6,7-dimethoxy-9-phenanthryl]methyl}-5-oxopyrrolidine-2-carboxylate]
CC50 (in vitro; L929): > 500 mg/L | CC50 (in vitro; Raw264.7): > 500 mg/L | CFU (log) [2]: 4.83 and 4.91 | CFU (replicates1-3), single values [2]: 41000 CFU and 66100 CFU and 72200 CFU and 71300 CFU and 95100 CFU and 88700 CFU and 98900 CFU and 41200 CFU and 40500 CFU and 105000 CFU and 75800 CFU and 72700 CFU and 52300 CFU and 61000 CFU and 63200 CFU and 62900 CFU and 137000 CFU and 98200 CFU | log reduction (CFU) ([2]; at 0.8 μg/ml): 0.5 | log reduction (CFU) ([2]; at 1.6 μg/ml): 0.6

CO[C@H]1/C=C/O[C@@]2(C)Oc3c(C)c(O)c4c(O)c(c(/C=N/N5CCN(C)CC5)c(O)c4c3C2=O)NC(=O)/C(C)=C\C=C\[C@H](C)[C@H](O)[C@@H](C)[C@@H](O)[C@@H](C)[C@H](OC(C)=O)[C@@H]1C [RIF, rifampicin, reference compound]
CC50 (in vitro; L929): > 500 mg/L | CC50 (in vitro; Raw264.7): > 500 mg/L | CFU (log) [2]: 4.63 and 4.77 | CFU (replicates1-3), single values [2]: 56400 CFU and 14000 CFU and 26700 CFU and 25200 CFU and 51000 CFU and 59000 CFU and 55000 CFU and 48000 CFU and 53000 CFU and 44900 CFU and 67000 CFU (2×) and 75100 CFU and 66500 CFU and 63000 CFU and 65000 CFU and 35000 CFU and 41000 CFU | log reduction (CFU) ([2]; at 12.5 μg/ml): 0.6
